In patent US9173898B2, “Methods of treating giardiasis” (THE UNITED STATES OF AMERICA, as represented by the …, priority 2010, dated 2015):
≈ marks a conversion by molar mass, not a printed value. Like-named read-outs stand apart in the source and are kept apart here.

Key:
[1] = system: Giardia lamblia GS isolate; assay: Trophozoite enumeration assay; format: cell-based; conditions: G. lamblia GS isolate, 48 hrs, cell counting in hemocytometer
Method: Giardia lamblia GS isolate was plated into sterile 96-well black clear-bottom assay plates at 10,000 cells/well density and 120 μL/well volume in culture media. Compounds tested were prepared as 50 mM DMSO solutions in a 12 point 1:3 titration series in DMSO, with exceptions being carbadox, Bortezomib and BTO-1, which were used at 10 mM top concentration due to solubility limitations. Compound titration series were added to duplicate assay wells as 0.5 μL/well and the assay plates were incubated anaerobically in Type A Bio-Bag (BD Diagnostics) for 48 hrs at 37° C. Cell density was visually scored in each well and the 6 wells surrounding the visually determined IC50 concentrations were quantitated by cell counting. For enumeration, trophozoites were detached on ice for 30 min and resuspended via pipetting. 75 μL of culture was removed from each well, mixed with 65 μL of 0.4% Trypan Blue and 10 μL of 30% bleach (final concentration of 2% bleach) to immobilize trophozoites. Trophozoites were then counted in a hemocytometer.

CHO cells [2] = assay: CHO cell cytotoxicity assay in 1536-well format (ATP content counter-screen); format: cell-based, Chinese hamster; conditions: for CHO Efficacy: percent reduction in ATP levels compared with 38.3 mM camptothecin at maximal compound concentration; for Emax: Cricetulus griseus, CHO, 48 h, percent reduction in ATP levels compared with 38.3 µM camptothecin at maximal compound concentration, read-out: CHO Efficacy
CHO cells [3] = assay: as above; format: cell-based, Chinese hamster; conditions: concentration at which 50% of DMSO control ATP levels are detected, 48 hours
Method: For the viability assay in 1536-well format, 2 μL media was dispensed per well into 1536-well white solid-bottom plates using Multidrop Combi dispenser. Subsequently, 23 nL/well compound solutions or DMSO controls were dispensed to the assay plates via a pintool workstation. The Chinese hamster ovary (CHO) cells were grown in T225 flasks to 70% confluence under a standard cell culture condition (ATCC), detached with 0.25% Trypsin/EDTA, and seeded at 250 cells/well in 4 μL media (Dulbecco's Modified Eagle Medium, 10% fetal bovine serum, 1× penicillin/streptomycin). The plates were incubated at 37° C. with 5% CO2 and 95% humidity for 48 hours. Subsequently, ATP content was measured following the addition of 4 μL/well of ATPLite reagent and a 20 min incubation on a ViewLux plate reader.
Data from the CHO cell counter-screen underwent the same initial analysis, with the exception that raw luminescence counts were normalized relative to DMSO only wells (0% activity) and 38.3 μM camptothecin treated wells (100% activity).
CHO cells, commonly used in high throughput compound screening, were selected to determine the cytotoxicity of the compounds towards a mammalian cell line.

Giardia WB = assay: Giardia viability (ATP content) assay in 1536-well format; format: cell-based, Giardia lamblia; conditions: for IC50: concentration at which 50% of DMSO control ATP levels are detected, 48 hours, 1536-well; for Giardia WB Efficacy / Emax: percent reduction in ATP levels compared with 38.3 mM Mnz at maximal compound concentration; for Emax: 48 h, read-out: Giardia WB Efficacy
Method: (§1) For the viability assay in 1536-well format, 2 μL media was dispensed per well into 1536-well white solid-bottom plates using a Multidrop Combi dispenser (Thermo Scientific). Subsequently, 23 nL/well compound solutions or DMSO controls were dispensed to the assay plates containing media via a pintool workstation (Kalypsys, San Diego). Trophozoites were chilled on ice to detach from glass tubes, and unless otherwise noted, were diluted to 250,000 trophozoites/mL with ice cold media. The trophozoite suspension was kept on ice and dispensed as 4 μL/well with the Multidrop Combi dispenser. Attachment of trophozoites to dispensing apparatus was avoided with continuous dispensing and icing of the trophozoite suspension. The plates were covered with plastic low-evaporation lids, individually sealed in Type A Bio-Bags and incubated at 37° C. for 48 hours. Following incubation, 4 μL/well of ATPLite reagent was dispensed with the Multidrop Combi dispenser. The assay plates were briefly centrifuged at 1000 RPM and luminescence signal was detected on a ViewLux plate reader (PerkinElmer) after 20 min incubation at room temperature. Signal-to-basal (S/B) ratio, Z′ factor and coefficient of variation (CV) were calculated from 32 wells with 0.38% DMSO (total signal) and 32 well with 38.3 μM Mnz (basal signal).
Assay miniaturization in 1,536-well plate format was undertaken to increase throughput and facilitate screening of large compound libraries. The volume of trophozoites suspension was reduced to 6 μL/well and the ATP detection reagent was reduced to 4 μL/well in the 1536-well assay plates. […] The 100 trophozoites/well density was selected for further experiments to reduce the preparation work of Giardia cultures. Following these conditions, a DMSO test plate was used to assess the statistical parameters of the assay in the 1,536-well plate format.
Using the above established conditions in 1536-well format, each compound of the invention was tested at 5 concentration points, ranging from 61 nM-38.3 μM in a 1:5 dilution ratio (Inglese, J., D. S. Auld, A. Jadhav, R. L. Johnson, A. Simeonov, A. Yasgar, W. Zheng, and C. P. Austin. 2006. Quantitative high-throughput screening: a titration-based approach that efficiently identifies biological activities in large chemical libraries. Proc Natl Acad Sci USA 103:11473-8).

G. lamblia GS isolate = assay: ATP content assay against G. lamblia GS isolate; format: cell-based, Giardia lamblia
Method: as §1
As a further confirmatory step, some compounds that were commercially available were purchased as powder samples and tested against the G. lamblia GS isolate using both the ATP content and enumeration assays (Table 3).

[4] = system: Giardia lamblia GS isolate; assay: Minimum Lethal Concentration (MLC) determination; format: cell-based; conditions: 3 days with compound, then 3 days regrowth without compound, tube without any live organisms
Method: Giardia lamblia GS isolate was used throughout the Minimal Lethal Concentration (MLC) experiments. Organisms were grown and maintained in TYI-S-33 medium supplemented with bile and antibiotics (Keister, 1983). Cidal activity was determined in 96-well culture plates (Corning Incorporated) followed by Giardia trophozoites regrowth in 8 ml tubes (Fisher Scientific). Dry compounds were dissolved in DMSO (Sigma) at stock concentration of 10 mM and then added to the growth media to ensure final DMSO concentration of no more than 0.5%. 100 μl of the compound solutions were placed in the wells by serial dilutions. 10 μl of Giardia trophozoites containing 10000 organisms were then added. Serial dilutions of metronidazole served as the positive control and the DMSO-containing medium served as the negative control. Plates were incubated under anaerobic conditions in sealed bags (Becton Dickinson and Company) at 37° C. for 3 days and surveyed visually under microscope to check survival, mobility and attachment of trophozoites. The plate was chilled on ice for 30 min and the entire contents of 4 wells in the growth/death transition were transferred into the 8 ml tubes containing growth media only (without the compound). After 3 days of incubation at 37° C., tubes were checked under microscope for any surviving trophozoites. MLC was attributed to the tube without any live organisms. See, e.g., Keister, D. B. 1983. Axenic culture of Giardia lamblia in TYI-S-33 medium supplemented with bile. Trans. Soc. Trop. Med. Hyg. 77:487-488.

[5] = G. lamblia GS isolate, purchased powder samples
[6] = G. lamblia GS isolate, purchased powder samples, read-out: ATP Content IC50
[7] = Giardia duodenalis, G. lamblia GS isolate, purchased powder samples, read-out: ATP Content IC50
[8] = Giardia duodenalis, Table 2, screen, read-out: Giardia GS IC50

Row | Compound | IC50 [1] [nM] | CHO Efficacy (CHO cells [2]) [%] | IC50 (CHO cells [3]) [nM] | IC50 (Giardia WB) [nM] | Giardia WB Efficacy (Giardia WB) [%] | ATP Content Efficacy (G. lamblia GS isolate; [5]) [%] | IC50 (G. lamblia GS isolate; [6]) [nM] | IC50 ([1]; Giardia duodenalis) [nM] | IC50 (G. lamblia GS isolate; [7]) [nM] | MBC ([4]; Giardia duodenalis, 72 h) [µM] | Emax (CHO cells [2]) [%] | IC50 (CHO cells [3]; Cricetulus griseus, CHO) [nM] | Emax (Giardia WB; Giardia) [%] | IC50 (Giardia WB; Giardia) [nM] | IC50 (G. lamblia GS isolate; [8]) [nM] | IC50 (G. lamblia GS isolate; Table 2, screen, read-out: Giardia GS IC50) [nM] | MBC [4] [µM]
1 | N#Cc1cc([N+](=O)[O-])c2sc(C(N)=O)[n+]([O-])c2c1 [BTO-1] | 9300 | 32.2 | 68800 | 1730 | 72.3 | 99.1 | 2000 | – | – | – | – | – | – | – | – | – | –
2 | CC(C)C[C@H](NC(=O)[C@H](Cc1ccccc1)NC(=O)c1cnccn1)B(O)O [Bortezomib] | – | – | – | – | – | 98.5 | – | 130 | 60 | 0.51 (≈ 0.196 µg/mL) | – | – | – | – | – | – | –
3 | COC(=O)N/N=C/c1c[n+]([O-])c2ccccc2[n+]1[O-] [Carbadox] | – | – | – | – | – | 99.4 | – | 290 | 240 | 4.6 (≈ 1.21 µg/mL) | 6.3 | > 100000 | 86.6 | 5460 | 2830 | – | –
4 | Nc1ncn([C@H]2C[C@H](O)[C@@H](CO)O2)c(=O)n1 [Decitabine, 5-Aza-2′-deoxycytidine] | – | – | – | – | – | 95.1 | – | 70 | 150 | 2.6 (≈ 0.593 µg/mL) | -52.2 | 24400 | 81.2 | 970 | 100 | – | –
5 | CO[C@@H]1[C@H](OC(=O)/C=C/C=C/C=C/C=C/C(=O)O)CC[C@]2(CO2)[C@H]1[C@@]1(C)O[C@@H]1CC=C(C)C [Fumagillin] | – | – | – | – | – | 98.9 | – | 3 | 2 | 0.257 (≈ 0.118 µg/mL) | -1.9 | > 100000 | 83.4 | 10 | 2 | – | –
6 | O=C(Nc1ccccc1)c1cc([N+](=O)[O-])ccc1Cl [GW9662] | – | – | – | – | – | 99.2 | – | 32900 | 12700 | 208 (≈ 57.5 µg/mL) | 8.5 | > 100000 | 86.4 | 6870 | – | – | –
7 | O=[N+]([O-])c1ccc([As](=O)(O)O)cc1 [Nitarsone] | 1200 | −13.5 | > 100000 | 430 | 97.0 | 99.6 | 900 | – | – | – | – | – | – | – | – | 1260 | 2.6
8 | CC(=O)Nc1ncc([N+](=O)[O-])s1 [Nithiamide] | – | – | – | – | – | – | – | – | – | 4.63 (≈ 0.867 µg/mL) | 25.9 | > 100000 | 94.6 | 580 | 317 | – | –
9 | Oc1cc(O)cc(/C=C/c2ccc(O)c(O)c2)c1 [Piceatannol] | – | – | – | – | – | – | – | – | – | 13.9 (≈ 3.4 µg/mL) | -16.6 | > 100000 | 81.3 | 3260 | 3560 | – | –
10 | CCCC(=O)OCC(OC(=O)CCC)C(OC(=O)CCC)C(Cn1c2nc(=O)[nH]c(=O)c-2nc2cc(C)c(C)cc21)OC(=O)CCC (stereo not drawn) [Riboflavin Butyrate] | – | – | – | – | – | – | – | – | – | 41.7 (≈ 27.4 µg/mL) | 20.3 | > 100000 | 95.7 | 1090 | 1130 | – | –
11 | CCCOc1ccc2nc(NC(=O)OC)sc2c1 [Tioxidazole] | – | – | – | – | – | – | – | – | – | 1.54 (≈ 0.41 µg/mL) | 34.9 | > 100000 | 90.9 | 1460 | 634 | – | –
12 | hydroxocobalamin acetate [Hydroxocobalam in Acetate] | 54200 | 16.1 | > 100000 | 13700 | 92.2 | 98.4 | 78300 | – | – | – | – | – | – | – | – | – | >208
